Patent publication US11083723B2, “Use of roluperidone to treat negative symptoms and disorders, increase neuroplasticity, and promote neuroprotection” (Minerva Neurosciences, Inc., priority 2018, dated 2021)
Structures can show the parent of a compound that is named as a salt.

What was measured:
[1] = system: GDNF release by primary rat astrocytes; assay: GDNF release by primary rat astrocytes, in situ ELISA; type: cell-based; details: 5 days incubation
Experimental: Experimental Protocol-In Situ ELISA on Primary Astrocytes Rat Primary Culture of Astrocytes Rat mixed glial cells were cultured as described by McCarthy et al. Primary rat glial cells were prepared from the cortical of newborn Wistar rats (1 day). Briefly, meninges and blood vessels of the mice cortex were removed and placed in ice-cold medium of Leibovitz (L15; PanBiotech, ref P04-27055, batch 4511117) containing 2% Penicillin-Streptomycin (PS; PanBiotech, ref P06-07100, batch 2110917) and 1% of bovine serum albumin (BSA; […] Cells were then submitted to a supplementary incubation of 15 min. at 37° C. in presence of deoxyribonuclease I (0.1 mg/mL Panbiotech, ref: P60-37780100, batch: H140508). Cells were then pelleted (5 min. at 1200 rpm) and trypsinization was stopped by adding DMEM (PanBiotech, Ref P04-03600, Batch 8420517) supplemented with 10% FCS (Fischer, Ref 10270106, batch 41A0940K), 1 mM of Na/pyruvate (PanBiotech, ref: P04-43100, batch 3470914). Cells suspension was mechanically dissociated and filtered through […] diameter nylon meshes (BD Falcon, Ref: 352340). The cells were collected by centrifugation at 1200 rpm/min for 10 min, resuspended in culture medium and then plated in culture flasks (Dutscher, ref: 690175). Cells were seeded at a density of 1.25×10^5 cells/cm^2 and culture in 5% CO2 at 37° C. Medium was changed 3 times per week. At confluency, astrocytes were plated in 96-well Nunc MaxiSorp surface polystyrene flat-bottom immunoplate precoated with poly-D-lysine during 30 min (Sigma, Ref: […], batch: SLBS8705) and an anti-GDNF monoclonal antibody overnight at 4° C. at a density of 30,000 cells/well. […] At the end of drug treatment, cells were carefully washed with TBST (20 mM Tris-HCl (pH 7.6), 150 mM NaCl, and 0.05% (vol/vol) Tween 20). The plate was then incubated with the polyclonal anti-human GDNF antibody overnight. The amount of specifically bound polyclonal antibody, which when exposed to chromogenic substrate (TMB reagent; Promega), changes color in proportion to the amount of GDNF present in the sample. The color intensity was quantified by measuring the absorbance at 450 nm. GDNF standards, ranging in concentration from 0 to 500 pg/mL were added in parallel wells in the same medium than hippocampal neurons.

dopaminergic receptors = assay: Receptor affinity, dopaminergic; type: binding
QT prolongation = details: patients treated with Compound (I); related to plasma levels of Compound (I) and metabolite BFB-520; cited from earlier work
[2] = system: BDNF release by primary hippocampal neurons; assay: BDNF release by primary hippocampal neurons, in situ ELISA; type: cell-based, rat; details: 3 days incubation
Experimental: Hippocampal neurons were plated in 96-well Nunc MaxiSorp surface polystyrene flat-bottom immunoplate precoated with poly-D-lysine during 30 min an anti-BDNF monoclonal antibody overnight at 4° C. at a density of 70,000 cells/well. […] At the end of drug treatment, cells were carefully washed with TBST (20 mM Tris-HCl (pH 7.6), 150 mM NaCl, and 0.05% (vol/vol) Tween 20). The plate was then incubated with the polyclonal anti-human BDNF antibody overnight and BDNF quantified.
Experimental Protocol—In Situ ELISA on Primary Hippocampal Neurons Hippocampal Neuron Culture
Newborn rats (Wistar rats, Janvier) were deeply anesthetized by hypothermia and decapitated. […] Cells were mechanically dissociated by 3 passages through a 10 ml pipette. Cells were then centrifuged at 515×g for 10 min at 4° C. […] Viable cells were counted in a Neubauer cytometer using the trypan blue exclusion test.
Hippocampal neurons were plated in 96-well Nunc MaxiSorp surface polystyrene flat-bottom immunoplate precoated with poly-D-lysine during 30 min (Sigma, Ref: P7886, batch: SLBS8705) an anti-BDNF monoclonal antibody overnight at 4° C. at a density of 70000 cells/well.
At the end of drug treatment, cells were carefully washed with TBST (20 mM Tris-HCl (pH 7.6), 150 mM NaCl, and 0.05% (vol/vol) Tween 20). The plate was then incubated with the polyclonal anti-human BDNF antibody overnight. The amount of specifically bound polyclonal antibody was then detected through the use of the anti-IgY-horseradish peroxidase tertiary antibody, which when exposed to the chromogenic substrate (TMB reagent; Promega), changes color in proportion to the amount of BDNF present in the sample. The color intensity was quantified by measuring the absorbance at 450 nm.

histaminergic receptors = assay: Receptor affinity, histaminergic; type: binding
muscarinic receptors = assay: Receptor affinity, muscarinic; type: binding
sigma1 receptors = sigma1 receptors (Homo sapiens, UniProt Q99720); assay: Molecular binding profile, sigma1
sigma1 receptors, sequence (Q99720 whole entry): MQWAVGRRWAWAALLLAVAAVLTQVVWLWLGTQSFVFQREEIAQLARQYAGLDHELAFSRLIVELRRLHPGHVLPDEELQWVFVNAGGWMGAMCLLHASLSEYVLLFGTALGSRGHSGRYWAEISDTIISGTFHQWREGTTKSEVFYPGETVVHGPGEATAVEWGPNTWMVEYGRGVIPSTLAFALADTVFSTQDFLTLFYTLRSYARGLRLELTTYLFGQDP

[3] = biological target: alpha1-adrenergic receptors; assay: Molecular binding profile, alpha1-adrenergic
sigma2 receptors = sigma2 receptors (Homo sapiens, UniProt Q5BJF2); assay: Molecular binding profile, sigma2
sigma2 receptors, sequence (Q5BJF2 whole entry): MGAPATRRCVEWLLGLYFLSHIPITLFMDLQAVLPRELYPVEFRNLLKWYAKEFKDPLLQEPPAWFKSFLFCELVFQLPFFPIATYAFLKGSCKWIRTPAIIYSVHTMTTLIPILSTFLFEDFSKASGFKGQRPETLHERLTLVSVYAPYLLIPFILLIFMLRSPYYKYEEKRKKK

cholinergic receptors = assay: Receptor affinity, cholinergic; type: binding
[4] = system: negative symptoms in schizophrenia; assay: Phase 2b clinical study, negative symptoms in schizophrenia; type: in vivo, human; details: both tested doses (32 mg and 64 mg)

O=C(CN1CCC(CN2Cc3ccccc3C2=O)CC1)c1ccc(F)cc1 [Compound (I), 1H-Isoindol-1-one, 2-[[1-[2-(4-Fluorophenyl)-2-oxoethyl]-4-piperidinyl]methyl]-2,3-dihydro-, hydrochloride, hydrate (1:1:2)]
GDNF release astrocytes, % increase of control conditions ([1]; 3 nM): 11.4%
GDNF release astrocytes, % increase of control conditions ([1]; 10 nM): 13.8%
GDNF release astrocytes, % increase of control conditions ([1]; 30 nM): 14.2%
GDNF release astrocytes, % increase of control conditions ([1]; 100 nM): 14.8%
GDNF release astrocytes, % increase of control conditions ([1]; 300 nM): 20.8%
GDNF release astrocytes, % increase of control conditions ([1]; 1 μM): 17.5%
affinity for dopaminergic receptors (dopaminergic receptors): no affinity
QT prolongation in patients (QT prolongation): QT prolongation in patients treated with Compound (I) has been observed
BDNF release hippocampal neurons, % increase of control conditions ([2]; 30 nM): 11.0%
BDNF release hippocampal neurons, % increase of control conditions ([2]; 100 nM): 14.9%
BDNF release hippocampal neurons, % increase of control conditions ([2]; 300 nM): 27.5%
BDNF release hippocampal neurons, % increase of control conditions ([2]; 1 μM): 24.3%
affinity for histaminergic receptors (histaminergic receptors): no affinity
affinity for muscarinic receptors (muscarinic receptors): no affinity
Ki (sigma1 receptors): 254 nM
Ki [3]: 14.4 nM
Ki (sigma2 receptors): 8.2 nM
selectivity sigma2 versus sigma1 receptors (sigma2 receptors; sigma2 versus sigma1): 30 fold
affinity for cholinergic receptors (cholinergic receptors): no affinity
benefit over placebo in improving negative symptoms in schizophrenia [4]: statistically significant benefit
